Patent US20120149700A1, “2-CYANOPHENYL FUSED HETEROCYCLIC COMPOUNDS, AND COMPOSTIONS AND USES THEREOF” (priority 2007, published 2012)

Assays:
P2X2/3 = molecular target: T1, P2X2/3 (Homo sapiens, UniProt P56373+Q9UBL9); experiment: Calcium uptake assay (P2X antagonist assay, inhibition of agonist-induced calcium influx), P2X2/3; format: cell-based; conditions: inhibition of agonist-induced calcium influx in cells expressing the receptor
T1 construct: expressed in transfected cells; host or cells: cell line stably expressing P2X2, stably transfected with P2X3 (e.g. HEK293 or 1321N1)
T1 sequence (Q9UBL9 1-471): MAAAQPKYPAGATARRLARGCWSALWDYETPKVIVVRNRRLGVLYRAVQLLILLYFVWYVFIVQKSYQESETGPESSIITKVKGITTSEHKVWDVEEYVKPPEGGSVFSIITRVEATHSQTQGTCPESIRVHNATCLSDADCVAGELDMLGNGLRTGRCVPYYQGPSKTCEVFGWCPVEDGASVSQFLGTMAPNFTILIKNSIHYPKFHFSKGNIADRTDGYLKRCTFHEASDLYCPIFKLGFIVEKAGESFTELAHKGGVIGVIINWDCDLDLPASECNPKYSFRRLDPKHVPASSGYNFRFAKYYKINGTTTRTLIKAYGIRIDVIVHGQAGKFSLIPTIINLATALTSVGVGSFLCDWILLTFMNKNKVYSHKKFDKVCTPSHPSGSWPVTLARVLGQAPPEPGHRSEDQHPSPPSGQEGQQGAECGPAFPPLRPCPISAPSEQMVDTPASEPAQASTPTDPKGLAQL
T1 sequence (P56373 1-397): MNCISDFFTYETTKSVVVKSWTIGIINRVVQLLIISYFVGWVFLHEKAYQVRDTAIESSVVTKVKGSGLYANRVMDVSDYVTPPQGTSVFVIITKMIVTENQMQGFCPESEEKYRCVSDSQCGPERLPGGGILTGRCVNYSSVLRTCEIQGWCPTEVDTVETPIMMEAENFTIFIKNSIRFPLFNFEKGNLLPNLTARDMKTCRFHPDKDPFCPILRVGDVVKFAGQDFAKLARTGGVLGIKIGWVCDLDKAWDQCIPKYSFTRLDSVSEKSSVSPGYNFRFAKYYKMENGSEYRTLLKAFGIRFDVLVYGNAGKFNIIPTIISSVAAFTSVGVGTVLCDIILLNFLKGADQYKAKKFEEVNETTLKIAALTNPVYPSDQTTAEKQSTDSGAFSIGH
Description: (§1) The human P2X2/3 chimera clone is created as described by Neelands et al, and then cloned into an expression vector as above. Receptors are expressed in cells (e.g., HEK293 or 1321N1 (obtained from the ECACC)) via transient transfection using standard lipid mediated transfection, or by creation of stable transfectants for each receptor. For expression of the P2X2/3 heteromeric receptor, the P2X3 expression vector is stably transfected into a cell line already stably expressing P2X2. P2X2/3 heteromer function is isolated using pharmacological methods. Cell lines are maintained in DMEM+5% Glutamax, the appropriate level of selective antibiotic, and 10% heat inactivated FBS.
(§2) Functional activity of compounds at the P2X receptor is determined by measuring their ability to inhibit agonist-induced calcium influx. Compounds are tested for antagonist activity against the P2X2/3 chimera, the P2X3 homomer, or the P2X2/3 heteromer. At the start of each screening day, the agonist EC50 is determined. Compound % inhibition or IC50s are subsequently determined using a pre-determined agonist concentration (EC50-90 depending on cell line) as a stimulus. The agonists used are αβMeATP, ATP, or other ATP analogs. Compounds may be tested at concentrations ranging from 1 pM to 10 μM.
(§3) To test for antagonist activity, cells expressing the appropriate receptor are seeded onto 96 or 384 well plates 18-24 hours prior to assay. […] Plates are incubated at 37° C. and then equilibrated at room temperature. Antagonism of agonist-induced calcium influx is measured using a fluorescent imaging plate reader (e.g. FLIPR^TETRA, Molecular Devices, Sunnyvale, Calif.). The assay comprises two stages: a pre-treatment phase followed by a treatment phase. Compounds may be tested as follows: For the pre-treatment phase, 50 μL of 3× concentration of test compound in HBSS is added to cells containing 100 μL of dye loading media to achieve a final concentration of 1× test compound. For the treatment phase, at a set interval after pre-treatment (1-30 minutes), 50 μl, of 1× test compound plus 4× agonist solution is added, resulting in a final concentration of 1× compound and 1× agonist. […] Responses are measured as (peak fluorescence after agonist addition) minus (baseline fluorescence prior to treatment). Percent inhibition is calculated as follows: […]
(§4) IC50 values are determined by analyzing dose response data in a 4 parameter logistic fit using GraphPad Prizm.

P2X3 = molecular target: T2, P2X3 (Homo sapiens, UniProt P56373); experiment: Calcium uptake assay (P2X antagonist assay, inhibition of agonist-induced calcium influx), P2X3; format: cell-based; conditions: inhibition of agonist-induced calcium influx in cells expressing the receptor
T2 construct: expressed in transfected cells; host or cells: e.g. HEK293 or 1321N1
T2 sequence (P56373 1-397): T1 sequence (P56373 1-397)
Description: as §1, §2, §3, §4

| Structure (SMILES) | IC50 (P2X2/3) [nM] | IC50 (P2X3) [nM] |
| --- | --- | --- |
| Cc1ccc(CNc2ncnc3c2CN(c2ccc(Cl)cc2C#N)CC3)cc1S(C)(=O)=O [Compound 76, 5-Chloro-2-[4-(3-methanesulfonyl-4-methyl-benzylamino)-7,8-dihydro-5H-pyrido[4,3-d]pyrimidin-6-yl]-benzonitrile] | 241 | 40 |
| Cc1ccc(N2CCc3ncnc(NC(CCO)c4ccc(C(F)(F)F)nc4)c3C2)c(C#N)c1 (stereo not shown) [Compound 25, 2-{4-[3-Hydroxy-1-(6-trifluoromethyl-pyridin-3-yl)-propylamino]-7,8-dihydro-5H-pyrido[4,3-d]pyrimidin-6-yl}-5-methyl-benzonitrile] | 136 | 55 |
| Cc1ccc(N2CCc3ncnc(NCc4ccc(Cl)nc4)c3C2)c(C#N)c1 [Compound 27, 2-{4-[(6-Chloro-pyridin-3-ylmethyl)-amino]-7,8-dihydro-5H-pyrido[4,3-d]pyrimidin-6-yl}-5-methyl-benzonitrile] | 25 | 11 |
| Cc1ccc(N2CCc3ncnc(NCc4ccc(C)c(I)c4)c3C2)c(C#N)c1 [Compound 55, 2-[4-(3-Iodo-4-methyl-benzylamino)-7,8-dihydro-5H-pyrido[4,3-d]pyrimidin-6-yl]-5-methyl-benzonitrile] | 1300 | 512 |
| Cc1ccc(N2CCc3ncnc(NCc4ccc(C)c(S(C)(=O)=O)c4)c3C2)c(C#N)c1 [Compound 59, 2-{4-(3-Methanesulfonyl-4-methyl-benzylamino)-7,8-dihydro-5H-pyrido[4,3-d]pyrimidin-6-yl}-5-methyl-benzonitrile] | 55 | 16 |
| CC(=O)OCC[C@@H](Nc1ncnc2c1CN(c1ccc(C)cc1C#N)CC2)c1ccc(C(F)(F)F)nc1 [Compound 77, Acetic acid (R)-3-[6-(2-cyano-4-methyl-phenyl)-5,6,7,8-tetrahydro-pyrido[4,3-d]pyrimidin-4-ylamino]-3-(6-trifluoromethyl-pyridin-3-yl)-propyl ester] | 536 | 130 |
| Cc1ccc(N2CCc3ncnc(N[C@H](CO)c4ccc(C(F)(F)F)nc4)c3C2)c(C#N)c1 [Compound 46, 2-{4-[(S)-2-Hydroxy-1-(6-trifluoromethyl-pyridin-3-yl)-ethylamino]-7,8-dihydro-5H-pyrido[4,3-d]pyrimidin-6-yl}-5-methyl-benzonitrile] | 71 | 21 |
| Cc1ccc(N2CCc3ncnc(NCc4ccc(C)c(F)c4)c3C2)c(C#N)c1 [Compound 48, 2-[4-(3-Fluoro-4-methyl-benzylamino)-7,8-dihydro-5H-pyrido[4,3-d]pyrimidin-6-yl]-5-methyl-benzonitrile] | 124 | 89 |
| N#Cc1cc(Cl)ccc1N1CCc2ncnc(N[C@H](CCO)c3ccc(C(F)F)nc3)c2C1 [Compound 62, 5-Chloro-2-{4-[(R)-1-(6-difluoromethyl-pyridin-3-yl)-3-hydroxy-propylamino]-7,8-dihydro-5H-pyrido[4,3-d]pyrimidin-6-yl}-benzonitrile] | 273 | 32 |
| COc1ccc([C@@H](CO)Nc2ncnc3c2CN(c2ccc(Cl)cc2C#N)CC3)cn1 [Compound 35, 5-Chloro-2-{4-[(S)-2-hydroxy-1-(6-methoxy-pyridin-3-yl)-ethylamino]-7,8-dihydro-5H-pyrido[4,3-d]pyrimidin-6-yl}-benzonitrile] | 200 | 23 |
| CCc1ccc(CNc2ncnc3c2CN(c2ccc(C)cc2C#N)CC3)cn1 [Compound 33, 2-{4-[(6-Ethyl-pyridin-3-ylmethyl)-amino]-7,8-dihydro-5H-pyrido[4,3-d]pyrimidin-6-yl}-5-methyl-benzonitrile] | 127 | 38 |
